Common to all, as to type: biochemical
The target in assay [1] is T1, human hepatic GK (Homo sapiens, UniProt P35557).
T1 sequence (P35557 1-466 isoform P35557-2): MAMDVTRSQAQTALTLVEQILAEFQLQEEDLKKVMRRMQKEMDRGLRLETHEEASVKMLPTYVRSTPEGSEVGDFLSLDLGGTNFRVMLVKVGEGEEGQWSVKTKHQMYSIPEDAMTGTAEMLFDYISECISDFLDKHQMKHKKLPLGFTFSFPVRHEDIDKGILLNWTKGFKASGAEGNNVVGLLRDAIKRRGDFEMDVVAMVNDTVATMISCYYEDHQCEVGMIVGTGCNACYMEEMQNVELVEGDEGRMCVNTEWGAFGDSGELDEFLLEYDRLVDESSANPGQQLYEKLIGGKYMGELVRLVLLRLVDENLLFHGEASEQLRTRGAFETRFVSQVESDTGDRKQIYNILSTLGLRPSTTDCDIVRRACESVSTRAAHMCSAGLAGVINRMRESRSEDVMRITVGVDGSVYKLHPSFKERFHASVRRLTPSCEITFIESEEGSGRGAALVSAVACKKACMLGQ
The assay is described as follows: filtration-based assay (direct G-6-P capture by ion-exchange resin). The following applies: 12 mM glucose, FIG. 7. The procedure: Human full-length recombinant GK was used to measure the activation of GK. Human full-length GK (15 nM) was incubated with various concentrations of glucose in the range from 0.33 to 50 mM in the presence of tritiated glucose (3H-glucose [6-^3H], 0.33 μCi) in 96 well microtiter plates. To initiate the GK reaction, Mg-ATP (3 mM final) was added to the protein in buffer, under the final buffer conditions of 25 mM HEPES, pH 7.1, containing 1 mM DTT and 5% DMSO. The total reaction volume was 110 μl. The reaction was allowed to proceed for ten minutes (i.e., the linear portion of the reaction) and was then quenched with 100 mM formic acid (1:1). A 200 μl aliquot of the quenched reaction products was then transferred to wells in a 96-well MultiScreen-GV 96 filtration plate containing 100 μl/well of Bio-rad AG 1-X8 Resin, formate form. The resin was then washed with H2O (1 ml/well), and the GK reaction product (G-6-P) eluted with 1M ammonium formate, pH 5 (200 μl/well). A 50 μl aliquot of this eluate was added to an Optiplate white 96 well plate containing 200 μl of Microscint PS. The plate was sealed and shaken for 5 minutes, and read on a Topcount scintillation counter (Perkin Elmer). The raw counts were converted to product concentration by comparison of the raw counts in the sample wells to wells containing a standard curve having known concentrations of ^3H-glucose-6-phosphate. […]

Assay [2] has as its target T1, human hepatic GK. The assay is described as follows: tandem assay (uncoupled G-6-P detection, heat stop). The procedure: Purified human recombinant GK was used to measure the activation of GK activity by glucose and a GK activator (Compound “C”) in the tandem assay. A suitable vehicle (for instance 24% DMSO in pH 7.25 Tris buffer), with or without (control) a GK modulator of interest was incubated with GK (50 μl of a 24 nM stock solution) over a range of concentrations of glucose (for instance from 0.32 to 80 mM) for 30 minutes in a 96-well PCR plate (10 μl). The GK reaction was initiated by addition of Mg-ATP (20 μl). The solution used comprised 12 mM ATP and 16 mM MgCl2. The final assay conditions were 25 mM Tris, pH 7.25, 1 mM DTT and 3% DMSO, 15 nM GK, 3 mM ATP and 4 mM MgCl2. Glucose stock solution (IM) was diluted to generate a dilution series with final glucose concentrations of: 0.2, 0.4, 0.6, 0.8, 1, 1.5, 2, 3, 4, 5, 6, 8, 10, 12, 20 and 50 mM. The total reaction volume per well was about 80 μl.
The GK reaction proceeded for about 10 minutes, and was followed by heating the 96-well plate in a hot water bath (100° C.) for 30 seconds to stop the reaction. […] An aliquot of reaction mixture (typically 50 μl) was then transferred to a second 96 well plate suitable for taking absorbance measurements. […] The reagents and reaction mixture are mixed for 2 minutes, followed by measurement of the absorbance at 405 nm using a plate reader. […]

Another assay concerns the target T2, human full-length GK (Homo sapiens, UniProt P35557).
T2 construct: human full-length GK (15 nM) was incubated with various concentrations of glucose
T2 sequence (P35557 1-466 isoform P35557-2): T1 sequence (P35557 1-466 isoform P35557-2)
Briefly: tandem assay with EDTA quench. The conditions noted are these: 12 mM glucose. The procedure:
The protocol used is essentially as described above with some variation. Briefly, human full-length GK (15 nM) was incubated with various concentrations of glucose in the range from 0.33 to 50 mM in clear bottom 384 well microtiter plates. To initiate the GK reaction, Mg-ATP (3 mM final concentration) was added to the protein in buffer, under the final buffer conditions of 25 mM HEPES, pH 7.1, containing 1 mM DTT and 5% DMSO. The total reaction volume was 20 μl. The reaction was allowed to proceed for ten minutes and was then quenched with 5 μl EDTA (45 mM final).
The components of the secondary reaction, ThioNAD and G6PDH (final concentrations of 650 μM and 3.33 Units, respectively), were then added together in a volume of 25 μl, and a total volume of 50 μl. Absorbance was read and activation calculated as a percentage of background activity, i.e., GK in the presence of DMSO, with background G6P subtracted. Background G6P was determined by pre-quenching GK with EDTA prior to reaction initiation with ATP.
The tandem assay (EDTA quench) was used to assess the activity of GK in the presence of putative GK activator compounds. The above-described tandem assay protocol was followed using a range of activator compound concentrations from 0 to 100 μM.

The term AC50 denotes the concentration at which the activity in the assay is half-maximal. Low values mean activity at low concentration, high ones activity only at high concentration. With `CCOP(=O)(Cc1cnc(NC(=O)[C@H](CC2CCCC2)c2ccc(S(C)(=O)=O)cc2)cn1)OCC` [Compound A, (R)-diethyl (5-(3-cyclopentyl-2-(4-(methylsulfonyl)phenyl)propanamido)pyrazin-2-yl)methylphosphonate], the results for the half-maximal activity concentration (AC50) on human hepatic GK [1] and at human full-length GK (FIG. 10) were 7.1 µM and around 0.904 µM, respectively. In addition, the Emax at human hepatic GK [1] (read-out: maximal activation number (above background)) is 228%; at human full-length GK (FIG. 10, read-out: maximal activation of background GK activity), 208%. For the same molecule, on human hepatic GK [2] (20 uM activator, control 3% DMSO), the “Kcat in the presence of GK activator” value was determined as 44 S^−1. The “KM compared to the controls” value on human hepatic GK [2] (in the presence of the activator, FIG. 8) is “substantially lower”.

The record behind these values is US20080085528A1, “G[…] ASSAYS FOR MEASURING KINETIC AND […]” (Bristol-Myers Squibb Company, priority 2006, published 2008).
